Reference: paper PMC5762315, “Inhibition of polo-like kinase 4 (PLK4): a new therapeutic option for rhabdoid tumors and pediatric medulloblastoma” (Oncotarget, 2017)
Where “and” joins values, the source holds several entries; their conditions need not be identical. Equal values may be shown once.

Tests used:
Assay in all cases: biochemical
Assay type in all cases: biochemical
various kinases [1] = biological target: various kinases (Homo sapiens, UniProt P22455); conditions: FGFR4
various kinases [2] = biological target: various kinases (Homo sapiens, UniProt Q9NR20); conditions: DYRK4
various kinases [3] = biological target: various kinases (Homo sapiens, UniProt P00533, L858R); conditions: EGFR (ErbB1) L858R
various kinases [4] = biological target: various kinases (Homo sapiens, UniProt Q15349); conditions: kinase RPS6KA2 (RSK3); ZLYTE
Chain of various kinases (Homo sapiens, UniProt Q15349) (Q15349 whole entry): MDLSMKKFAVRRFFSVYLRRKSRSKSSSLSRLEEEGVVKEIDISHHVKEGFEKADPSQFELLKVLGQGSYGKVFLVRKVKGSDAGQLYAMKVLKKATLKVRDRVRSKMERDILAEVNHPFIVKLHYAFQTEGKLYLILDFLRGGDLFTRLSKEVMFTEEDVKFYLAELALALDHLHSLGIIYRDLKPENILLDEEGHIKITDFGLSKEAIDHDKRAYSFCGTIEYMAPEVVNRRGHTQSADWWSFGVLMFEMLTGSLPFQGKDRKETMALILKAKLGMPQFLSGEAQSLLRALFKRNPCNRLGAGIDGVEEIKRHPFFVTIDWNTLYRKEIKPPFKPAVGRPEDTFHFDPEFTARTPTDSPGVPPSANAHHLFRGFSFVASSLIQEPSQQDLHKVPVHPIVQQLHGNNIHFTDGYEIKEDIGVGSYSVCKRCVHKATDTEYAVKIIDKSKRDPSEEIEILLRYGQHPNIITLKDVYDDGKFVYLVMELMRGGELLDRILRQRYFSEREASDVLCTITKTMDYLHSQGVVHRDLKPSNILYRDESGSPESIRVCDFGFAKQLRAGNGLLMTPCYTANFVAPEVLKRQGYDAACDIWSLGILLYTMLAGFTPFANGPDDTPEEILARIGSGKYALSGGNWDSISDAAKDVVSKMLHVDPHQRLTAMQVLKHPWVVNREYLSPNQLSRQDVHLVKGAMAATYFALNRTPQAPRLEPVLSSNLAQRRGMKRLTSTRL

various kinases [5] = biological target: various kinases (Homo sapiens, UniProt Q9H422); conditions: HIPK3 (YAK1)
various kinases [6] = biological target: various kinases (Homo sapiens, UniProt P07333); conditions: CSF1R (FMS)
Chain of various kinases (Homo sapiens, UniProt P07333) (P07333 20-972): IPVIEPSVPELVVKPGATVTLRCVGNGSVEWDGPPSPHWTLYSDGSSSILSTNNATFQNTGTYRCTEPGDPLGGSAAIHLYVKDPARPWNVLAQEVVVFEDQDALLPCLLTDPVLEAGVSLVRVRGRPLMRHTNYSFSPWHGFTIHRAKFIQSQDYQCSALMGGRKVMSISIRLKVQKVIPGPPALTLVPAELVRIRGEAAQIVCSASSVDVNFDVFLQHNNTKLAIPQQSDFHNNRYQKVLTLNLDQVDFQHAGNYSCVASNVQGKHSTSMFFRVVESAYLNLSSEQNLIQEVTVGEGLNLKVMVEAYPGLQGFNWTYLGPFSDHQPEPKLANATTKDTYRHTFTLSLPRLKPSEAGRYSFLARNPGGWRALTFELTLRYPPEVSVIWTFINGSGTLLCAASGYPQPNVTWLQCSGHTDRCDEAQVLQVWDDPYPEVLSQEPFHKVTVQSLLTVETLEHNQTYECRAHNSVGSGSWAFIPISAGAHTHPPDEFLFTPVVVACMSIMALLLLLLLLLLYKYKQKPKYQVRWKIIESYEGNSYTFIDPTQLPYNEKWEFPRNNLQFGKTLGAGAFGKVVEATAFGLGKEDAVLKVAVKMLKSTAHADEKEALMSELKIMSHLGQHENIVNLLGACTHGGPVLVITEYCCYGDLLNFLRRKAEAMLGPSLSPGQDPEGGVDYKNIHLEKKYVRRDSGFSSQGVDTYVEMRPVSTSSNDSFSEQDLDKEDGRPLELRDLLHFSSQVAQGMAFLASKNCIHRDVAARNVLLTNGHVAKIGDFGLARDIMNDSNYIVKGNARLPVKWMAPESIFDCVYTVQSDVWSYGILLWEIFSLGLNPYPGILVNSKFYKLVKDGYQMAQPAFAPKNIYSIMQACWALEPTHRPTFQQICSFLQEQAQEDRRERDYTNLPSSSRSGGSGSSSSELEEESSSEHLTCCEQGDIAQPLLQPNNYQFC

various kinases [7] = biological target: various kinases (Homo sapiens, UniProt P68400); conditions: CSNK2A1 (CK2 alpha 1)
various kinases [8] = biological target: various kinases (Homo sapiens, UniProt Q14164); conditions: IKBKE (IKK epsilon)
various kinases [9] = biological target: various kinases (Homo sapiens, UniProt P29322); conditions: EPHA8
various kinases [10] = biological target: various kinases (Homo sapiens, UniProt P36888, D835Y); conditions: FLT3 D835Y
various kinases [11] = biological target: various kinases (Homo sapiens, UniProt Q9UM73); conditions: ALK
various kinases [12] = biological target: various kinases (Homo sapiens, UniProt Q9H1R3); conditions: MYLK2 (skMLCK)
various kinases [13] = biological target: various kinases (Homo sapiens, UniProt Q9NWZ3); conditions: IRAK4
various kinases [14] = biological target: various kinases (Homo sapiens, UniProt P78368); conditions: CSNK1G2 (CK1 gamma 2)
various kinases [15] = biological target: various kinases (Homo sapiens, UniProt P07949, A883F); conditions: kinase RET A883F; ZLYTE
Chain of various kinases (Homo sapiens, UniProt P07949, A883F) (P07949 29-1114 A883F): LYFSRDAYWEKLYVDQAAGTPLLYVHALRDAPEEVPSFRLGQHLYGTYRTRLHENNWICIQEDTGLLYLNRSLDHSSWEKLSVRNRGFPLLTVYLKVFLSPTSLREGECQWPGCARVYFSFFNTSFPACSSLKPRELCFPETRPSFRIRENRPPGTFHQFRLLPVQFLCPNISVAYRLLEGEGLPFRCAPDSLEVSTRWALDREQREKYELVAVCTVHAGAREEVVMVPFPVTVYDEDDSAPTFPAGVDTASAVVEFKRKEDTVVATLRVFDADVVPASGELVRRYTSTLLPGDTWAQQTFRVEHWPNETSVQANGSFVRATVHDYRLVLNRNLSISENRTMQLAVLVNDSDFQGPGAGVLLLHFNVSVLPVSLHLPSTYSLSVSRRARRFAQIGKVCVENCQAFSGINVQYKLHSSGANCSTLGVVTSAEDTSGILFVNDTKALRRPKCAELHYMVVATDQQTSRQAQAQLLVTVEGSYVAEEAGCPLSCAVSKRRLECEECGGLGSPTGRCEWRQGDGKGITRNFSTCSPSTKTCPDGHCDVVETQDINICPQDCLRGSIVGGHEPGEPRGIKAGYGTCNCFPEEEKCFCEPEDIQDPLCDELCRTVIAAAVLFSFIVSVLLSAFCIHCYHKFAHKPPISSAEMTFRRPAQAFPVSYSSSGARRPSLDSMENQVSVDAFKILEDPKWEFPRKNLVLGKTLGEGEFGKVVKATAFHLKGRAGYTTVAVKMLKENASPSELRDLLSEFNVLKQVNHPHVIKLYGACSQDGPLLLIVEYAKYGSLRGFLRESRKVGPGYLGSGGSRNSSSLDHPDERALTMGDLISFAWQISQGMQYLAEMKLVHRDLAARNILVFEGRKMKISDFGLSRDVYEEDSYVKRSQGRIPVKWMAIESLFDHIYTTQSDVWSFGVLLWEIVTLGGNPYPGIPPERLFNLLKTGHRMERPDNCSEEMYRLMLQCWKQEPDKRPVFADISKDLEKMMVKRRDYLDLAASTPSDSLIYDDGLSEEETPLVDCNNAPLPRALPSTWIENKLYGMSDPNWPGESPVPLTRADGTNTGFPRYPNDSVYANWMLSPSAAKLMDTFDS

various kinases [16] = biological target: various kinases (Homo sapiens, UniProt P07949, S891A); conditions: kinase RET S891A; ZLYTE
Chain of various kinases (Homo sapiens, UniProt P07949, S891A) (P07949 29-1114 S891A): as the sequence (P07949 29-1114 A883F) above, with F855A, S863A counted along it

various kinases [17] = biological target: various kinases (Homo sapiens, UniProt Q8IW41); conditions: MAPKAPK5 (PRAK)
various kinases [18] = biological target: various kinases (Homo sapiens, UniProt P00533, C797S/L858R/T790M); conditions: EGFR (ErbB1) T790M C797S L858R
various kinases [19] = biological target: various kinases (Homo sapiens, UniProt P52333); conditions: JAK3
various kinases [20] = biological target: various kinases (Homo sapiens, UniProt O14757); conditions: CHEK1 (CHK1)
various kinases [21] = biological target: various kinases (Homo sapiens, UniProt O75914); conditions: PAK3
Chain of various kinases (Homo sapiens, UniProt O75914) (O75914 whole entry): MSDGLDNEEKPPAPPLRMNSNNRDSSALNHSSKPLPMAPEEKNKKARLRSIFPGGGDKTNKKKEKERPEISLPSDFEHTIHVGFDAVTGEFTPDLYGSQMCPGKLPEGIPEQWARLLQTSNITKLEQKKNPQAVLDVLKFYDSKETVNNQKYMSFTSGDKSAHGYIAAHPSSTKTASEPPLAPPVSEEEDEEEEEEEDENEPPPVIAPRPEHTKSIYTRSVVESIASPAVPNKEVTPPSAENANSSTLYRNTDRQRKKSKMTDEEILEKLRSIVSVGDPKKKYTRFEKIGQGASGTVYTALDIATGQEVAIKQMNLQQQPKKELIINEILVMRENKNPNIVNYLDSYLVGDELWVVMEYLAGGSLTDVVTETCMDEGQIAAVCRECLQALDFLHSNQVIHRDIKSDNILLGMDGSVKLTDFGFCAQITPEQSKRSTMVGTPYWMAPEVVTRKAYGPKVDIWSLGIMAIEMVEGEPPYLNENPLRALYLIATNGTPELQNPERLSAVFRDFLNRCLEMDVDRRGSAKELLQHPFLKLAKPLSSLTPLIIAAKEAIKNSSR

various kinases [22] = biological target: various kinases (Homo sapiens, UniProt P00519, T315I); conditions: ABL1 T315I
various kinases [23] = biological target: various kinases (Homo sapiens, UniProt Q9Y5S2); conditions: CDC42 BPB (MRCKB)
various kinases [24] = biological target: various kinases (Homo sapiens, UniProt P07948); conditions: LYN A
Chain of various kinases (Homo sapiens, UniProt P07948) (P07948 whole entry): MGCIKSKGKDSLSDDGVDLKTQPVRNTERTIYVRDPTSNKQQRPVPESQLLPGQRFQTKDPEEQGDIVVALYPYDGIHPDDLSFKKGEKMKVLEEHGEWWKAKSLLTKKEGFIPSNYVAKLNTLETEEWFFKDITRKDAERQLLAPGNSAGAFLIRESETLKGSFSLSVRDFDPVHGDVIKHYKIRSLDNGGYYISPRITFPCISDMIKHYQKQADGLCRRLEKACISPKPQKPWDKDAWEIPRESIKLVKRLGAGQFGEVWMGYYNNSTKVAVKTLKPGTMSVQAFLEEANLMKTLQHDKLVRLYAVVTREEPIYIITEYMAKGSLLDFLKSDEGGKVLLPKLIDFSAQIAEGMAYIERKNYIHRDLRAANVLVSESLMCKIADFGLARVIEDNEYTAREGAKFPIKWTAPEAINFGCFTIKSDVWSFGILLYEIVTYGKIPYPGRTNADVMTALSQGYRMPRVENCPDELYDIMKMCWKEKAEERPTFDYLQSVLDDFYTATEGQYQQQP

various kinases [25] = biological target: various kinases (Homo sapiens, UniProt P15056, V600E); conditions: BRAF V599E
various kinases [26] = biological target: various kinases (Homo sapiens, UniProt Q12866); conditions: MERTK (cMER)
various kinases [27] = biological target: various kinases (Homo sapiens, UniProt O00506); conditions: kinase STK25 (YSK1); ZLYTE
Chain of various kinases (Homo sapiens, UniProt O00506) (O00506 whole entry): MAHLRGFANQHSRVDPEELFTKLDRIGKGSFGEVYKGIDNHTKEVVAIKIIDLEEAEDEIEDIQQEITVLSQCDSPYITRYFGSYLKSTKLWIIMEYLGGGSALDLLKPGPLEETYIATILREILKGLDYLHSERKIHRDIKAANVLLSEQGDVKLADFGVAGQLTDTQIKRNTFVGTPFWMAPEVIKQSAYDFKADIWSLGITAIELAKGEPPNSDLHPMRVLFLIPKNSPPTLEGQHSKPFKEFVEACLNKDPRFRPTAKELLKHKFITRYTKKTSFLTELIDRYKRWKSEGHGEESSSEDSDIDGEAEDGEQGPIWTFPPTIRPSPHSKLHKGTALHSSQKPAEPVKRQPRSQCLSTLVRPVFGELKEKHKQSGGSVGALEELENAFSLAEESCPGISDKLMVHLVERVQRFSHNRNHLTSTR

various kinases [28] = biological target: various kinases (Homo sapiens, UniProt P45983); conditions: MAPK8 (JNK1)
various kinases [29] = biological target: various kinases (Homo sapiens, UniProt Q8TDC3); conditions: BRSK1 (SAD1)
various kinases [30] = biological target: various kinases (Homo sapiens, UniProt Q13627); conditions: DYRK1A
various kinases [31] = biological target: various kinases (Homo sapiens, UniProt P08581); conditions: MET (cMet)
various kinases [32] = biological target: various kinases (Homo sapiens, UniProt P22607, K650E); conditions: FGFR3 K650E
various kinases [33] = biological target: various kinases (Homo sapiens, UniProt Q8IU85); conditions: CAMK1D (CaMKI delta)
Chain of various kinases (Homo sapiens, UniProt Q8IU85) (Q8IU85 whole entry): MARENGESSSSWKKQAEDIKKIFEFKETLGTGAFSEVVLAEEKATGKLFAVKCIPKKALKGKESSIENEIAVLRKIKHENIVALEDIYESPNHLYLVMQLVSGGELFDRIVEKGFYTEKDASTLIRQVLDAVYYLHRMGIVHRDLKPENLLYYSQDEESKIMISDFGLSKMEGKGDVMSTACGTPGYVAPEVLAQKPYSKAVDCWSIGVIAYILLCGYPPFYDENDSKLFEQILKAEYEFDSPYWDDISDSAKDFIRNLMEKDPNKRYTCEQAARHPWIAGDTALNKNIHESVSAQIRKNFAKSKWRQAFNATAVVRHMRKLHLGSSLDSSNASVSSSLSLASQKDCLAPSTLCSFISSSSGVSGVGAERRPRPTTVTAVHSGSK

various kinases [34] = biological target: various kinases (Homo sapiens, UniProt P15056); conditions: BRAF
various kinases [35] = biological target: various kinases (Homo sapiens, UniProt O15264); conditions: MAPK13 (p38 delta)
various kinases [36] = biological target: various kinases (Homo sapiens, UniProt Q16566); conditions: CAMK4 (CaMKIV)
various kinases [37] = biological target: various kinases (Homo sapiens, UniProt P06213); conditions: INSR
various kinases [38] = biological target: various kinases (Homo sapiens, UniProt P51451); conditions: BLK

COc1ccc2c(c1)[C@]1(C[C@H]1c1ccc3c(/C=C/c4ccc(CN5C[C@@H](C)O[C@@H](C)C5)cc4)n[nH]c3c1)C(=O)N2 [CFI-400945]
% Inhibition (various kinases [1]): 10% and 16% | % Inhibition (various kinases [2]): 3% and 2% | % Inhibition (various kinases [3]): 1% and 2% | % Inhibition Average (various kinases [4]): 12% | % Inhibition Duplicate #1 (various kinases [4]): 11% | % Inhibition Duplicate #2 (various kinases [4]): 13% | % Inhibition (various kinases [5]): 2% and 3% | % Inhibition (various kinases [6]): 14% and 15% | % Inhibition (various kinases [7]): 9% and 4% | % Inhibition (various kinases [8]): -1% and 1% | % Inhibition (various kinases [9]): -5% and 0% | % Inhibition (various kinases [10]): 27% and 29% | % Inhibition (various kinases [11]): 51% | % Inhibition (various kinases [12]): 6% and 7% | % Inhibition (various kinases [13]): 0% and -3% | % Inhibition (various kinases [14]): 1% and 3% | % Inhibition Average (various kinases [15]): 7% | % Inhibition Duplicate #1 (various kinases [15]): 9% | % Inhibition Duplicate #2 (various kinases [15]): 4% | % Inhibition Average (various kinases [16]): 55% | % Inhibition Duplicate #1 (various kinases [16]): 59% | % Inhibition Duplicate #2 (various kinases [16]): 52% | % Inhibition (various kinases [17]): 2% and 4% | % Inhibition (various kinases [18]): 8% and 5% | % Inhibition (various kinases [19]): 23% | % Inhibition (various kinases [20]): 9% and 11% | % Inhibition (various kinases [21]): 11% and 5% | % Inhibition (various kinases [22]): 83% and 78% | IC50 (various kinases [22]): 27.2 nM | % Inhibition (various kinases [23]): -1% and 2% | % Inhibition (various kinases [24]): 11% and 14% | % Inhibition (various kinases [25]): 12% | % Inhibition (various kinases [26]): -2% and 1% | % Inhibition Average (various kinases [27]): -3% | % Inhibition Duplicate #1 (various kinases [27]): 0% | % Inhibition Duplicate #2 (various kinases [27]): -6% | % Inhibition (various kinases [28]): -3% and -1% | % Inhibition (various kinases [29]): 13% and 7% | % Inhibition (various kinases [30]): 2% and 4% | % Inhibition (various kinases [31]): 16% and 14% | % Inhibition (various kinases [32]): 38% and 44% | % Inhibition (various kinases [33]): -5% and 0% | % Inhibition (various kinases [34]): -1% and 2% | % Inhibition (various kinases [35]): 1% and 4% | % Inhibition (various kinases [36]): 7% and -3% | % Inhibition (various kinases [37]): 4% and 10% | % Inhibition (various kinases [38]): 9% and 14%
